Here are results for 17 compounds from PubChem BioAssay AID256 (DTP/NCI, 2004).

SMILES strings stand for the structures. “And” between values parts separate entries of the source, which are not always exact repeats. Equal values may be shown once. Toxic doses and inconclusive results are not listed.

The test system of this assay is CD2F1 mice, L1210 leukemia ip, survival T/C. Briefly: NCI In Vivo Anticancer Drug Screen. Data for tumor model L1210 Leukemia (intraperitoneal) in CD2F1 (CDF1) mice. As to conditions: higher = longer survival. Summed up: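 Each value reflects a quotient of treated over vehicle control outcomes in mice with a transplanted tumor.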
Setting [1] is: endpoint: mean survival time, dose: 100.0 mg/kg/injection, schedule: Q04DX003 (ip), vehicle: saline with Tween-80.
The mark [2] stands for this setting: endpoint: mean survival time, dose: 200.0 mg/kg/injection, schedule: Q04DX003 (ip), vehicle: saline with Tween-80.
Setting [3] is: endpoint: mean survival time, dose: 100.0 mg/kg/injection, schedule: Q01DX009 (ip), vehicle: saline with Tween-80.
[4] abbreviates: endpoint: mean survival time, dose: 200.0 mg/kg/injection, schedule: Q01DX009 (ip), vehicle: saline with Tween-80.
The mark [5] stands for this setting: endpoint: mean survival time, dose: 400.0 mg/kg/injection, schedule: Q01DX009 (ip), vehicle: saline with Tween-80.
Setting [6] is: endpoint: mean survival time, dose: 50.0 mg/kg/injection, schedule: Q01DX009 (ip), vehicle: saline with Tween-80.

Regarding `NNC(=O)c1ccc(Cl)cc1Nc1cccc(Cl)c1`, the T/C reads like this: under setting [1], 112 % of control; under setting [2], 89 % of control.

As to `CNC(=S)C#N`, the T/C is 100 % of control (endpoint: median survival time, dose: 6.25 mg/kg/injection, schedule: Q01DX005 (ip), vehicle: saline + Tween-80 + alcohol); 97 % of control (endpoint: median survival time, dose: 12.5 mg/kg/injection, schedule: Q01DX005 (ip), vehicle: saline + Tween-80 + alcohol); 98 % of control and 102 % of control (endpoint: median survival time, dose: 25.0 mg/kg/injection, schedule: Q01DX005 (ip), vehicle: saline + Tween-80 + alcohol); 87 % of control and 112 % of control (endpoint: median survival time, dose: 50.0 mg/kg/injection, schedule: Q01DX005 (ip), vehicle: saline + Tween-80 + alcohol).

Turning to `CN(Cc1cnc2nc(N)nc(N)c2n1)c1ccc(C(=O)NC(CCC(=O)OC(C)(C)C)C(=O)OC(C)(C)C)cc1` (stereo not drawn), the T/C by setting is: (endpoint: mean survival time, dose: 1.56 mg/kg/injection, schedule: Q01DX009 (ip), vehicle: saline with Tween-80) 112 % of control; (endpoint: mean survival time, dose: 3.12 mg/kg/injection, schedule: Q01DX009 (ip), vehicle: saline with Tween-80) 121 % of control; (endpoint: mean survival time, dose: 4.5 mg/kg/injection, schedule: Q01DX009 (ip), vehicle: saline with Tween-80) 111 % of control.

`COc1cc2c(cc1OC)C(C#N)N(C(=O)c1ccccc1)C=C2` (stereo not drawn): the T/C is, setting by setting: (endpoint: mean survival time, dose: 25.0 mg/kg/injection, schedule: Q01DX009 (ip), vehicle: water) 93 % of control; (endpoint: mean survival time, dose: 50.0 mg/kg/injection, schedule: Q01DX009 (ip), vehicle: water) 100 % of control; (endpoint: mean survival time, dose: 100.0 mg/kg/injection, schedule: Q01DX009 (ip), vehicle: water) 93 % of control; (endpoint: mean survival time, dose: 200.0 mg/kg/injection, schedule: Q01DX009 (ip), vehicle: water) 94 % of control; (endpoint: mean survival time, dose: 400.0 mg/kg/injection, schedule: Q01DX009 (ip), vehicle: water) 86 % of control.

For the compound `NC(=S=O)C(N)=S=O`, the T/C is 103 % of control (endpoint: median survival time, dose: 50.0 mg/kg/injection, schedule: Q01DX005 (ip), vehicle: saline with Tween-80); 100 % of control (endpoint: median survival time, dose: 100.0 mg/kg/injection, schedule: Q01DX005 (ip), vehicle: saline with Tween-80); 111 % of control (endpoint: median survival time, dose: 200.0 mg/kg/injection, schedule: Q01DX005 (ip), vehicle: saline with Tween-80); 107 % of control (endpoint: median survival time, dose: 400.0 mg/kg/injection, schedule: Q01DX005 (ip), vehicle: saline with Tween-80).

On to `COc1ccc(C(=O)Nc2ccc(Br)cc2)cc1`, for which the T/C (endpoint: mean survival time, dose: 100.0 mg/kg/injection, schedule: Q01DX009 (ip), vehicle: saline) was 93 % of control; the T/C (endpoint: mean survival time, dose: 200.0 mg/kg/injection, schedule: Q01DX009 (ip), vehicle: saline) was 108 % of control; the T/C (endpoint: mean survival time, dose: 400.0 mg/kg/injection, schedule: Q01DX009 (ip), vehicle: saline) is 98 % of control.

Take `CCOC(=O)c1cccc(N(CCOS(C)(=O)=O)CCOS(C)(=O)=O)c1`: the T/C is, setting by setting: (endpoint: mean survival time, dose: 2.0 mg/kg/injection, schedule: Q01DX010 (ip), vehicle: saline) 100 % of control; (endpoint: mean survival time, dose: 4.0 mg/kg/injection, schedule: Q01DX010 (ip), vehicle: saline) 106 % of control; (endpoint: mean survival time, dose: 8.0 mg/kg/injection, schedule: Q01DX010 (ip), vehicle: saline) 119 % of control; (endpoint: mean survival time, dose: 16.0 mg/kg/injection, schedule: Q01DX010 (ip), vehicle: saline) 121 % of control; (endpoint: mean survival time, dose: 50.0 mg/kg/injection, schedule: Q01DX001 (ip), vehicle: saline) 98 % of control; (endpoint: mean survival time, dose: 100.0 mg/kg/injection, schedule: Q01DX001 (ip), vehicle: saline) 101 % of control. The T/C (endpoint: mean survival time, dose: 200.0 mg/kg/injection, schedule: Q01DX001 (ip), vehicle: saline) was 101 % of control.

As for `O=[N+]([O-])c1ccc(N2CCCCC2)c([N+](=O)[O-])c1`, the T/C by setting is: under setting [3], 96 % of control; under setting [4], 98 % of control; under setting [5], 95 % of control.

Turning to `CC(O)C(O)C=O` (stereo not drawn), the T/C was 100 % of control (endpoint: mean survival time, dose: 72.0 mg/kg/injection, schedule: Q03HX008 (ip), vehicle: saline); 97 % of control (endpoint: mean survival time, dose: 120.0 mg/kg/injection, schedule: Q03HX008 (ip), vehicle: saline); 102 % of control (endpoint: mean survival time, dose: 200.0 mg/kg/injection, schedule: Q03HX008 (ip), vehicle: saline); 101 % of control (endpoint: mean survival time, dose: 248.0 mg/kg/injection, schedule: Q01DX009 (ip), vehicle: saline); 104 % of control (endpoint: mean survival time, dose: 346.0 mg/kg/injection, schedule: Q01DX009 (ip), vehicle: saline); 97 % of control (endpoint: mean survival time, dose: 576.0 mg/kg/injection, schedule: Q01DX001 (ip), vehicle: saline). The T/C (endpoint: mean survival time, dose: 576.0 mg/kg/injection, schedule: Q01DX009 (ip), vehicle: saline) was 107 % of control; the T/C (endpoint: mean survival time, dose: 960.0 mg/kg/injection, schedule: Q01DX001 (ip), vehicle: saline) was 94 % of control; the T/C (endpoint: mean survival time, dose: 1600.0 mg/kg/injection, schedule: Q01DX001 (ip), vehicle: saline) is 102 % of control.

`OCc1ccc2[n+](c1)CCc1c-2[nH]c2ccccc12`: the T/C runs as follows: (endpoint: mean survival time, dose: 12.5 mg/kg/injection, schedule: Q01DX001 (ip), vehicle: saline with Tween-80) 96 % of control; (endpoint: mean survival time, dose: 12.5 mg/kg/injection, schedule: Q01DX009 (ip), vehicle: saline with Tween-80) 98 % of control; (endpoint: mean survival time, dose: 25.0 mg/kg/injection, schedule: Q01DX001 (ip), vehicle: saline with Tween-80) 101 % of control; (endpoint: mean survival time, dose: 25.0 mg/kg/injection, schedule: Q01DX009 (ip), vehicle: saline with Tween-80) 94 % of control; (endpoint: mean survival time, dose: 50.0 mg/kg/injection, schedule: Q01DX001 (ip), vehicle: saline with Tween-80) 101 % of control; under setting [6], 100 % of control.

Take `O=C(Nc1cccnc1)c1ccc([N+](=O)[O-])s1`: the T/C by setting is: (endpoint: mean survival time, dose: 50.0 mg/kg/injection, schedule: Q01DX005 (ip), vehicle: saline + alcohol) 111 % of control; (endpoint: mean survival time, dose: 50.0 mg/kg/injection, schedule: Q01DX005 (ip), vehicle: saline) 110 % of control; (endpoint: mean survival time, dose: 100.0 mg/kg/injection, schedule: Q01DX005 (ip), vehicle: saline + alcohol) 121 % of control; (endpoint: mean survival time, dose: 100.0 mg/kg/injection, schedule: Q01DX005 (ip), vehicle: saline) 160 % of control; (endpoint: mean survival time, dose: 200.0 mg/kg/injection, schedule: Q01DX005 (ip), vehicle: saline + alcohol) 107 % of control; (endpoint: mean survival time, dose: 200.0 mg/kg/injection, schedule: Q01DX005 (ip), vehicle: saline) 122 % of control. Besides, the T/C was 119 % of control (endpoint: median survival time, dose: 25.0 mg/kg/injection, schedule: Q01DX005 (ip), vehicle: saline); 115 % of control (endpoint: median survival time, dose: 36.0 mg/kg/injection, schedule: Q01DX005 (ip), vehicle: saline); 116 % of control (endpoint: median survival time, dose: 50.0 mg/kg/injection, schedule: Q01DX005 (ip), vehicle: saline); 121 % of control (endpoint: median survival time, dose: 60.0 mg/kg/injection, schedule: Q01DX005 (ip), vehicle: saline).

Regarding `O=C(/C=C/c1ccccc1)c1cccc([N+](=O)[O-])c1`, the T/C runs as follows: (endpoint: mean survival time, dose: 100.0 mg/kg/injection, schedule: Q04DX002 (ip), vehicle: saline with Tween-80) 91 % of control; (endpoint: mean survival time, dose: 200.0 mg/kg/injection, schedule: Q04DX002 (ip), vehicle: saline with Tween-80) 91 % of control; (endpoint: mean survival time, dose: 400.0 mg/kg/injection, schedule: Q04DX002 (ip), vehicle: saline with Tween-80) 95 % of control.

Take `CC(=O)Nc1cccc(C(F)(F)F)c1`: the T/C was 100 % of control (endpoint: mean survival time, dose: 50.0 mg/kg/injection, schedule: Q01DX009 (ip), vehicle: Klucel (hydroxypropylcellulose) (HPC)); 93 % of control (endpoint: mean survival time, dose: 100.0 mg/kg/injection, schedule: Q01DX009 (ip), vehicle: Klucel (hydroxypropylcellulose) (HPC)); 100 % of control (endpoint: mean survival time, dose: 200.0 mg/kg/injection, schedule: Q01DX009 (ip), vehicle: Klucel (hydroxypropylcellulose) (HPC)).

On to `Cc1ccc(Nc2ccc(Nc3ccc(C)cc3)c3c2C(=O)c2ccccc2C3=O)cc1`, for which the T/C is 86 % of control under setting [3], 89 % of control under setting [4] and 89 % of control under setting [5].

Regarding `O=C(Nc1ccc(C(=O)O)cc1)OCc1ccccc1`, the T/C is 100 % of control under setting [1]; 101 % of control under setting [2]; 91 % of control (endpoint: mean survival time, dose: 400.0 mg/kg/injection, schedule: Q04DX003 (ip), vehicle: saline with Tween-80).

For the compound `NCC(F)(F)C(F)(F)C(F)(F)CN`, the T/C is 98 % of control under setting [6], 107 % of control under setting [3] and 103 % of control under setting [4].

As to `NCCN`, the T/C is 106 % of control (endpoint: mean survival time, dose: 100.0 mg/kg/injection, schedule: Q01DX001 (ip), vehicle: saline with Tween-80) and 97 % of control (endpoint: mean survival time, dose: 400.0 mg/kg/injection, schedule: Q01DX001 (ip), vehicle: saline with Tween-80).
